Laboratory results published in US20260132127A1, “NOVEL SPIRO COMPOUND” (MITSUBISHI TANABE PHARMA CORPORATION, priority 2021, published 2026).

biological target: T1, human TRH-DE (Homo sapiens, UniProt Q9UKU6); assay: TRH-DE inhibition test (RapidFire MS measurement of product Cyclo (His-Pro)); type: biochemical; conditions: membrane fraction of Expi 293 cells expressing human TRH-DE; 10 μM TRH substrate; room temperature, 2 hours; 16-point concentration test
T1 construct: expressed in transfected cells; host or cells: Expi 293 cells (transient expression), membrane fraction
T1 sequence (Q9UKU6 1-1069): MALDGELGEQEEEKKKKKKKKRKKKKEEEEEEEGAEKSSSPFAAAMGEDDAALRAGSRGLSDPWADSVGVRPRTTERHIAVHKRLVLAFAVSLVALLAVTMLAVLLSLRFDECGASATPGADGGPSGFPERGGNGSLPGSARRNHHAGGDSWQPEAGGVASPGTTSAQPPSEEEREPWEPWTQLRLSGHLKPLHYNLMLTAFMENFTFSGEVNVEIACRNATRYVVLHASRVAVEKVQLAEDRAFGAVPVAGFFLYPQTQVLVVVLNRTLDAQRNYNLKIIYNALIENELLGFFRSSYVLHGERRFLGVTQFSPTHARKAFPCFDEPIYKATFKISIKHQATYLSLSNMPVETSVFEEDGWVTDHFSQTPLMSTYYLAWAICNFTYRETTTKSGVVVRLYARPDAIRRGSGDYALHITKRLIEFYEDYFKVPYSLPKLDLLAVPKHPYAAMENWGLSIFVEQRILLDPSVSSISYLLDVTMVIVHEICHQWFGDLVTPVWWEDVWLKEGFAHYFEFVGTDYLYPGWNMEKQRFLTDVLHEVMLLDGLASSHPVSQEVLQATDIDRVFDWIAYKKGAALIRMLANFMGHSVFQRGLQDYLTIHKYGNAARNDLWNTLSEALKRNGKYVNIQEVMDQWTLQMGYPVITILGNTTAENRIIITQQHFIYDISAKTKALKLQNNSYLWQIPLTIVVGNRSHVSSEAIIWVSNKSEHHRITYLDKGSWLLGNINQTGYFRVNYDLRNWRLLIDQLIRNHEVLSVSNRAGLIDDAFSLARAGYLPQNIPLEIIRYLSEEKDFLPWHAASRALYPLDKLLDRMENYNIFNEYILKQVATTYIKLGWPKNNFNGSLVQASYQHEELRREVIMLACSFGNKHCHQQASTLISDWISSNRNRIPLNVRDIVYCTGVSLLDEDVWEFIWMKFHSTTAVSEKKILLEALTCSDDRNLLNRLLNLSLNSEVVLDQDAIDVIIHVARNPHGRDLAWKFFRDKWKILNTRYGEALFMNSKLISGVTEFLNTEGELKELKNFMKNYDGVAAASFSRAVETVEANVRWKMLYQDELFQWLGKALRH
Experimental: The compounds described in “1. […] The enzyme inhibitory activity of each of the compounds was evaluated by measuring the amount of the product Cyclo (His-Pro) of the enzyme reaction using a RapidFire RF 365 HTMS system (manufactured by Agilent Technologies, Inc.) connected to a triple quadrupole mass spectrometer (API 4000, manufactured by SCIEX). A membrane fraction prepared from Expi 293 cells transiently expressing human TRH-DE was used as an enzyme. The membrane fraction was suspended in 4 μg/ml of a reaction buffer (50 mM sodium phosphate (pH 7.4), 25 mM NaCl, 0.01% Triton […], and 200 μM bacitracin) and mixed with the test compound at each concentration. 10 μM […]), which was a substrate, was added, and the mixture was reacted at room temperature for 2 hours. The reaction was stopped in the same amount of a solution of acetonitrile:methanol (1:1) containing 1 μM of the stable isotope Cyclo ([…]) as an internal standard, and the supernatant was collected after centrifugation. In the RapidFire RF 365 HTMS system, a portion of the supernatant was aspirated, loaded onto a Graphic Carbon column (manufactured by Agilent Technologies, Inc.) with a buffer A (water, 0.09% formic acid, 0.01% trifluoroacetic acid) and washed with ultrapure water. Next, washing was performed with acetonitrile. The contents in the column were eluted with a buffer B (80% acetonitrile, 0.09% formic acid, 0.01% trifluoroacetic acid) and injected into a mass spectrometer for analysis. […] The ESI voltage was set to 5,500 V and the temperature was set to 650° C. For the calculation of the inhibition rate, a Ratio value corrected by dividing the product amount by the internal standard amount was used. The inhibition rate (%) was calculated by % Inhibition={1-(Ratio value of sample-Ratio value of blank)/(Ratio value of control-Ratio value of blank)}×100. The IC50 value was calculated from the concentration reactivity test at 16 points.

In order of falling IC50:
1. CC1COc2cccnc2C(=O)N1C1CC2(C1)CN(S(=O)(=O)c1ccccc1F)C2 (single isomer, unassigned) [Example 349]  507 nM
2. CC1c2ccccc2C(=O)N1C1CC2(C1)CN(S(=O)(=O)c1ccccc1F)C2 (single isomer, unassigned) [Example 359]  454 nM
3. CC1c2cnccc2C(=O)N1C1CC2(C1)CN(S(=O)(=O)c1ccccc1F)C2 (racemic) [Example 295]  355 nM
4. C[C@@H]1CC[C@@H](C)N(C2CC3(C2)CN(S(=O)(=O)c2ccccc2F)C3)C(=O)C1 (racemic) [Example 437, (4R*,7R*)-1-[2-(2-fluorophenyl)sulfonyl-2-azaspiro[3.3]heptan-6-yl]-4,7-dimethylazepan-2-one]  292 nM
5. CC1CCCC(=O)N1C1CC2(C1)CN(S(=O)(=O)c1ccccc1F)C2 (racemic) [Example 440, 1-[2-(2-fluorophenyl)sulfonyl-2-azaspiro[3.3]heptan-6-yl]-6-methylpiperidin-2-one]  199 nM
6. CC1c2cc(F)cnc2C(=O)N1C1CC2(C1)CN(S(=O)(=O)c1ccccc1F)C2 (single isomer, unassigned) [Example 362]  182 nM
7. CC1c2cc(C(F)(F)F)cnc2C(=O)N1C1CC2(C1)CN(S(=O)(=O)c1ccccc1F)C2 (single isomer, unassigned) [Example 365]  160 nM
8. CC1c2cc(F)cnc2C(=O)N1C1CC2(C1)CN(S(=O)(=O)c1ccccc1F)C2 (racemic) [Example 292]  154 nM
9. CC1CCC(=O)N(C2CC3(C2)CN(S(=O)(=O)c2ccccc2F)C3)C(C)C1 (racemic) [Example 438]  126 nM
10. CC1CCC(=O)N(C2CC3(C2)CN(S(=O)(=O)c2ccccc2F)C3)C(C)C1 (racemic) [Example 439]  124 nM
11. Cc1cnc2c(c1)C(C)N(C1CC3(C1)CN(S(=O)(=O)c1ccccc1F)C3)C2=O (racemic) [Example 293]  121 nM
12. COc1ccc2c(n1)C(=O)N(C1CC3(C1)CN(S(=O)(=O)c1ccccc1F)C3)C2C (racemic) [Example 294]  118 nM
13. CC1c2ccccc2C(=O)N1C1CC2(C1)CN(S(=O)(=O)c1ccccc1F)C2 (single isomer, unassigned) [Example 358]  89 nM
14. CC1c2cccnc2C(=O)N1C1CC2(C1)CN(S(=O)(=O)c1ccccc1F)C2 (single isomer, unassigned) [Example 360]  86 nM
15. CC1CCc2nc(C(F)(F)F)sc2C(=O)N1C1CC2(C1)CN(S(=O)(=O)c1ccccc1F)C2 (single isomer, unassigned) [Example 353]  66 nM
16. CC1Cc2nc(C(F)(F)F)ccc2C(=O)N1C1CC2(C1)CN(S(=O)(=O)c1ccccc1F)C2 (single isomer, unassigned) [Example 356]  44 nM
17. C[C@@H]1CC[C@H](C)N(C2CC3(C2)CN(S(=O)(=O)c2ccccc2F)C3)C(=O)C1 (racemic) [Example 436, (4R*,7S*)-1-[2-(2-fluorophenyl)sulfonyl-2-azaspiro[3.3]heptan-6-yl]-4,7-dimethylazepan-2-one]  33 nM
18. C[C@@H]1COc2nc(Cl)c(F)cc2C(=O)N1C1CC2(C1)CN(S(=O)(=O)c1ccccc1F)C2 [Example 36]  21 nM
19. CC[C@@H]1COc2ncccc2C(=O)N1C1CC2(C1)CN(S(=O)(=O)c1ccccc1F)C2 [Example 39]  20 nM
20. CC1CCc2nc(C3CC3)sc2C(=O)N1C1CC2(C1)CN(S(=O)(=O)c1ccccc1F)C2 (single isomer, unassigned) [Example 355]  17 nM
21. C[C@@H]1COc2ncc(C(F)(F)F)cc2C(=O)N1C1CC2(C1)CN(S(=O)(=O)c1ccccc1F)C2 [Example 33]  15 nM
22. C[C@@H]1COc2ncc(F)cc2C(=O)N1C1CC2(C1)CN(S(=O)(=O)c1ccccc1F)C2 [Example 27]  14 nM
23. C[C@@H]1COc2nc(Cl)ncc2C(=O)N1C1CC2(C1)CN(S(=O)(=O)c1ccccc1F)C2 [Example 6]  13 nM
24. C[C@@H]1COc2nccnc2C(=O)N1C1CC2(C1)CN(S(=O)(=O)c1ccccc1F)C2 [Example 8, (7R)-8-[2-(2-fluorophenyl)sulfonyl-2-azaspiro[3.3]heptan-6-yl]-7-methyl-6,7-dihydropyrazino[2,3-f][1,4]oxazepin-9-one]  13 nM
25. C[C@@H]1COc2ncccc2C(=O)N1C1CC2(C1)CN(S(=O)(=O)c1ccccc1F)C2 [Example 38]  12 nM
26. CC1CCc2nc(C(F)(F)F)sc2C(=O)N1C1CC2(C1)CN(S(=O)(=O)c1ccccc1F)C2 (single isomer, unassigned) [Example 352]  11 nM
27. C[C@@H]1COc2nc(OC3CC(C#N)C3)ncc2C(=O)N1C1CC2(C1)CN(S(=O)(=O)c1ccccc1F)C2 (stereo in doubt) [Example 379]  10 nM
28. C[C@@H]1COc2ccc(Cl)nc2C(=O)N1C1CC2(C1)CN(S(=O)(=O)c1ccccc1F)C2 [Example 12]  9 nM
29. C[C@@H]1COc2ccc(C(F)(F)F)nc2C(=O)N1C1CC2(C1)CN(S(=O)(=O)c1ccccc1F)C2 [Example 17]  8 nM
30. C[C@@H]1COc2nc(Cl)ccc2C(=O)N1C1CC2(C1)CN(S(=O)(=O)c1ccccc1F)C2 [Example 34]  8 nM
31. C[C@@H]1COc2nc(OC(F)(F)F)ccc2C(=O)N1C1CC2(C1)CN(S(=O)(=O)c1ccccc1F)C2 [Example 35]  7 nM
32. Cc1nc2c(cc1Br)C(=O)N(C1CC3(C1)CN(S(=O)(=O)c1ccccc1F)C3)[C@H](C)CO2 [Example 37]  6 nM
33. CC1COc2cccnc2C(=O)N1C1CC2(C1)CN(S(=O)(=O)c1ccccc1F)C2 (single isomer, unassigned) [Example 348]  5 nM
34. C[C@@H]1COc2cc(F)cnc2C(=O)N1C1CC2(C1)CN(S(=O)(=O)c1ccccc1F)C2 [Example 11]  4 nM
35. C[C@@H]1COc2cc(C(F)(F)F)ncc2C(=O)N1C1CC2(C1)CN(S(=O)(=O)c1ccccc1F)C2 [Example 24]  3 nM
36. C[C@@H]1COc2ncc(Cl)cc2C(=O)N1C1CC2(C1)CN(S(=O)(=O)c1ccccc1F)C2 [Example 32]  3 nM
37. C[C@@H]1COc2nc(N3C[C@H]4C[C@H]4C3)ncc2C(=O)N1C1CC2(C1)CN(S(=O)(=O)c1ccccc1F)C2 (relative stereo) [Example 168, (7R)-2-[(1S*,5R*)-3-azabicyclo[3.1.0]hexan-3-yl]-6-[2-(2-fluorophenyl)sulfonyl]-2-azaspiro[3.3]heptan-6-yl]-7-methyl-7,8-dihydropyrimido[5,4-f][1,4]oxazepin-5-one]  2 nM
38. CC1CCc2nc(C3CC3)sc2C(=O)N1C1CC2(C1)CN(S(=O)(=O)c1ccccc1F)C2 (single isomer, unassigned) [Example 354]  2 nM
39. C[C@@H]1COc2cc(Cl)cnc2C(=O)N1C1CC2(C1)CN(S(=O)(=O)c1ccccc1F)C2 [Example 13]  2 nM
40. C[C@@H]1COc2ccncc2C(=O)N1C1CC2(C1)CN(S(=O)(=O)c1ccccc1F)C2 [Example 19]  2 nM
41. C[C@@H]1COc2cc(Cl)ncc2C(=O)N1C1CC2(C1)CN(S(=O)(=O)c1ccccc1F)C2 [Example 22]  2 nM
42. C[C@@H]1COc2cc(Br)cnc2C(=O)N1C1CC2(C1)CN(S(=O)(=O)c1ccccc1F)C2 [Example 18]  1 nM
